{"source": "patent US8518383B2", "about": "“Oral care products comprising buffer systems for improved mineralization/remineralization benefits” (Wm. Wrigley Jr. Company, priority 2006, dated 2013)", "assay": "in-vitro pH cycling model, enamel microhardness (remineralization efficacy)", "design": "species or system human", "method": "The purpose of this test was to evaluate in-vitro efficacy of soluble calcium and phosphate combinations. Testing was conducted at the University of Indiana. Enamel specimens (3×3×3 mm diameter window) were removed from extracted human teeth and mounted on acrylic rods. The enamel surface was ground and polished using alumina slurry, rinsed with deionized water, and air dried. Artificial lesions were then formed in the enamel specimens by a 96 hr immersion in a partially saturated HAP acid buffer consisting of 0.1 mM lactic acid and 0.2 wt % Carbopol C907 adjusted to a pH of 5. Four baseline indentations per specimen were placed with a Vickers diamond at a 200 g load for 15 seconds and the indentation lengths had to be in a range from 25-45 microns. Enamel specimens (N=18 per treatment) were then cycled daily through a series of solutions repeated over an 8 day time period. Artificial saliva, acid challenge and pooled whole saliva solutions were prepared fresh daily. After treatment, the enamel microhardness was assessed and the difference between initial and final microhardness was calculated as a measure of remineralization efficacy. The data was then statistically analyzed with overall treatment comparisons calculated using an ANOVA model at α=0.05. Post ANOVA pairwise comparisons were made using a 2 tailed student t-test.\nArtificial saliva with active treatments (1 hr, 4× daily)\nSaliva treatment (0.05 ppm fluoride, 30 min daily)\nAcid challenge (partially saturated HAP acid/carbopol buffer, Ph 5.0, 20 min., 3× daily)\nSaliva film in a humid environment (overnight)\nComparison of Ca-citrate and Ca-citrate+Phosphate blend vs. Ca-lactate (see FIG. 1)"}
{"smiles": "CC(O)C(=O)[O-].CC(O)C(=O)[O-].[Ca+2]", "note": "(stereo not drawn) [Ca-lactate]", "values": [{"measurement": "dose response of enamel rehardening", "setting": "500 and 1500 ppm", "result": "No significant dose response"}]}
{"smiles": "O=C([O-])CC(O)(CC(=O)[O-])C(=O)[O-].O=C([O-])CC(O)(CC(=O)[O-])C(=O)[O-].[Ca+2].[Ca+2].[Ca+2]", "note": "[CaCit (811), Ca Citrate]", "values": [{"measurement": "ΔVSMH (difference between initial and final enamel microhardness)", "setting": "Ca 811 ppm (0.38% salt) in artificial saliva, 1 hr 4x daily, 8 day pH cycling, mean, N=18", "result": 29.65}, {"measurement": "ΔVSMH (difference between initial and final enamel microhardness)", "setting": "Ca 811 ppm (0.38% salt) in artificial saliva; 1 hr 4x daily, 8 day pH cycling; mean, N=18; 0.38%)", "result": 29.55}, {"measurement": "enamel rehardening, comparison in words", "setting": "pairwise comparison of treatment groups, see value", "result": "higher enamel rehardening over Ca-lactate"}]}
{"smiles": "CC(O)C(=O)[O-].CC(O)C(=O)[O-].O.O.O.O.O.[Ca+2]", "note": "(stereo not drawn) [CaLac (500), Ca Lactate 5-hydrate]", "values": [{"measurement": "ΔVSMH (difference between initial and final enamel microhardness)", "setting": "Ca 500 ppm in artificial saliva, 1 hr 4x daily, 8 day pH cycling, mean, N=18", "result": 4.78}]}
{"smiles": "CC(O)C(=O)[O-].CC(O)C(=O)[O-].O.O.O.O.O.[Ca+2]", "note": "(stereo not drawn) [CaLac (1500), Ca Lactate 5-hydrate]", "values": [{"measurement": "ΔVSMH (difference between initial and final enamel microhardness)", "setting": "Ca 1500 ppm in artificial saliva, 1 hr 4x daily, 8 day pH cycling, mean, N=18", "result": 5.99}]}
